Reference: patent US20210038730A1, “PEPTIDE NANOFIBERS” (UNIVERSITY OF PORTSMOUTH HIGHER EDUCATION CORPORATION, priority 2018, published 2021)

What was measured:
[1] = Enzymatic stability in MDA-MB-231 cell homogenates
Experimental: Fresh blood, obtained from adult male Wistar rats, was collected in sterile the 170 I.U. lithium heparin-coated tubes (Vacutainer, BD Bioscience, UK). Blood was centrifuged immediately at 2,000 g for 15 minutes (4° C.) and supernatant was collected and diluted to 50% (v/v) with PBS. Livers and brains were obtained from adult male Wistar rats, and the tissues were blotted to dryness, weighed, sliced into pieces, and homogenised with ice-cold PBS (in 2 mL of buffer g^−1 of tissue) using the glass homogeniser. Then, tissue homogenates were centrifuged at 4,300 g for 1 hour (4° C.) and the supernatants collected. Glioblastoma cell homogenates were prepared using U-87 MG cells. Cells were cultured in Eagle's Minimum Essential Medium (EMEM) supplemented with 10% (v/v) heat-inactivated fetal bovine serum (FBS), 1% (v/v) of non-essential amino acids (NEAA) and 1 mM of sodium pyruvate in T75 flasks with a surface area of 75 cm^2 and maintained in a humidified atmosphere of 5% CO2 at 37° C. Breast cancer cell homogenates were prepared using MDA-MB-231 cells. Cells were cultured in Dulbecco's Modified Eagle Medium (DMEM) supplemented with high levels of glucose (4.5 g/L), 10% (v/v) heat-inactivated fetal bovine serum (FBS), 1% (v/v) of non-essential amino acids (NEAA) and penicillin and streptomycin (500 units/mL) in T75 flasks with a surface area of 75 cm^2 and maintained in a humidified atmosphere of 5% CO2 at 37° C. Media was changed for both cell lines every 3 to 4 days. After reaching confluence, cells were washed twice with Hank's Balanced Salt Solution (HBSS) and incubated with ˜2 mL of TrypLE Enzyme at 37° C. for ˜3 minutes. Then, complete media were added, and cells were centrifuged at 1,000 rpm for 5 minutes in C-28A centrifuge (Boeco, Germany). U-87 MG or MDA-MB-231 cells (˜10×10^6 cells mL^−1) were re-suspended in ice-cold PBS, and homogenised with a 2×5 second pulses with the probe sonicator (UP200S Ultrasonic processor, SciMed, 200 watts, amplitude of 60%). Cell debris were removed by centrifugation at 2,000 rpm for 5 minutes (Jouan B4i, Thermo Scientific, Paisley, UK). Supernatant was collected and stored at −80° C. Total protein concentration in the homogenates was determined using the Bradford assay with bovine serum albumin as a standard. Diluted plasma, tissue or cell homogenates were pre-warmed during ˜30 minutes at 37° C. Peptide stock solutions (Glu-GnRH, goserelin acetate and TPGnRH, 5 mM in PBS, 500 μL) were prepared and added to the homogenate solutions (120 μL). PAX-loaded nanofibers prepared at a ratio of 1:7.36 [PAX:TPGnRH consisting of 3 μmol (2.56 mg mL^−1) of PAX, 22.02 μmol (31.46 mg mL^−1) of TPGnRH], as previously described, and further diluted in PBS to achieve a concentration of 5 mM of TPGnRH and 500 nM of PAX (120 μL) were added to the homogenates. At various time intervals, an aliquot was collected (80 μL) and added to ice-cold ACN (80 μL) to quench the enzymatic activity. Samples were stored at −80° C. for at least 3 hours to maximise protein precipitation. Samples were vortexed for 15 minutes, centrifuged for 15 minutes at 12,000 rpm, and the supernatants were collected and analysed by RP-HPLC.

[2] = In vivo pharmacokinetic study, intravenous; conditions: mice
Experimental: At 5 and 60 minutes, mice were killed and the blood and brain were harvested. Blood samples (0.5-0.7 mL per mouse) were collected into evacuated, sterile, spray coated with tripotassium ethylenediamine tetraacetic acid (3.6 mg), medical grade PET tubes. […] Brain was weighted and homogenised with ice-cold PBS (1×, 7.4) using a 3 mL glass homogeniser. Plasma (100 μL) and brain homogenate (˜800 μL) were extracted with equal volumes of ice-cold acetonitrile three times and samples were dried using a centrifugal concentrator (SPD1010 SpeedVac System, ThermoSavant, Renfrewshire, United Kingdom) under vacuum over 2 hours and 4 hours respectively. Samples were orbitally agitated using a SciQuip Microplate Shaker attached to a tube adapter for 1.5-2 mL tubes (10 mm) for 10 minutes prior being centrifuged at 8,000 rpm for 5 minutes. Supernatants were pipetted in 0.2 mL amber vials and was quantified by reverse phase-HPLC. Analysis was conducted on Onyx Monolithic C18 column (4.6 mm×10+100 mm, 5 μm pore size) with a gradient method (Table 13) using an Agilent 1200 Series HPLC system (Agilent Technologies, Cheadle, UK). […] Injection volume was 40 μL, and the detection was performed at 220 nm and 280 nm.

[3] = Circular dichroism, temperature and dilution stability of nanofibers; format: physicochemical; conditions: CD, 15 to 50° C., dilutions 1:10-1:100
Experimental: Secondary structure was assessed using circular dichroism (CD). TPGnRH solutions (70 or 700 μM) were prepared in aqueous 0.9% sodium chloride and analysed at 20±0.1° C. using Applied Photophysics Pi180 spectropolarimeter (Surrey, UK). For the temperature-dependent studies, the peptide was incubated at a range of temperature (15 to 50° C.) and the spectra were collected at 5° C. intervals. To investigate the effect of dilution, peptide solutions were diluted in 0.9% (w/v) sodium chloride solution at 20° C. Data were collected every 1 nm over the wavelength range of 200-360 nm. X-ray diffraction (XRD) studies were carried out on stalks prepared by suspending drops of TPGnRH solutions (70 or 700 μM) between the ends of the wax-coated capillaries and allowing them to dry at room temperature. Stalks were vertically mounted onto a four-axis goniometer of a FR-E+X-Ray diffractomer (Rigaku, Sevenoaks, UK).

[4] = tested on: rat red blood cells (RBCs); format: cell-based; conditions: 1 hour, 37° C., read-out: IC50 of haemolysis
Experimental: Fresh blood, obtained from adult male Wistar rats (250 to 300 g) (Bioresources Unit, School of Pharmacy and Biomedical Sciences, University of Portsmouth, Portsmouth, UK) was collected in sterile lithium heparin-coated tubes (170 I.U., Vacutainer, BD Bioscience, UK) and kept on ice. To isolate the rat red blood cells (RBCs), fresh blood was centrifuged at 2,000 g using Haraeus Multifuge […] (Thermo Scientific, UK) at 4° C. for 10 minutes. The supernatant was removed, and the final volume was raised to the whole blood volume with PBS (0.01 M, pH 7.4). RBCs were centrifuged at 2,000 g for 10 minutes and washed with PBS three times. After the washing steps, two cell suspensions were prepared: 4% (w/v) RBCs in PBS and 1% (v/v) Triton X-100 (i.e. 1 g of cells in 25 mL of PBS or 1% (v/v) Triton X-100). RBCs in PBS and in Triton X-100 were used as a negative and positive control, respectively. […] After incubation, the cells were centrifuged at 1,200 g using a Haraeus Multifuge […] (Thermo Scientific, UK) during 10 minutes. The supernatant (100 μL) was transferred to a 96-well plate, and absorbance was measured at 590 nm. Percentage of haemolysis was calculated using Equation 1: [formula] Abs Negative Control represents the absorbance of the RBCs in PBS and Abs Positive Control the absorbance of the RBCs in 1% (v/v) Triton X-100. A control for Cremophor EL and ethanol mixture was also included.

U-87 MG cells = assay: Apoptosis (Annexin V-FITC); format: cell-based, human; conditions: >7 μM, every two days, 6 days of treatment
Experimental: In vitro antitumour effects of TPGnRH and PAX-loaded TPGnRH were assessed in U-87 MG cells, UP-007, UP-029, SEBTA-023 MDA-MD-231 [triple negative (ER^−, PR—, HER2^−) breast cancer cell line] and SK-OV-3 (human ovarian carcinoma with a low expression of GnRH-R). Cells were seeded at 1,400 cells/cm^2 and allowed to attach and grow for 3 days. In experiments with TPGnRH nanofibers alone (to obtain the IC50 value in each cell line), cells were treated with medium supplemented with the peptide solutions in PBS (0.7 to 700 μM) to achieve a final concentration of 0.07 to 70 μM per well. Media was replaced by fresh media every two days for 6 days. […] On day 4, PAX-loaded TPGnRH nanofibers containing 1 nM of PAX and 7 or 35 μM of TPGnRH were added and the effect on cell viability, proliferation, cell cycle, and apoptosis was assessed on day 6. Only for the MDA-MB-231 cells, on day 4, PAX-loaded TPGnRH nanofibers containing 10 nM of PAX and 7 or 35 μM of TPGnRH were added and the effect on cell viability, proliferation, cell cycle, and apoptosis was also assessed on day 6. […] Cell metabolic activity was measured using MTT assay. […] Afterwards, dimethyl sulfoxide (100 μL) was added to the wells to dissolve the formazan crystals and the absorbance was measured at 570 and 690 nm. […] Cells were incubated with BrdU for 24 hours before the end of the pre-determined time-points. […]

[5] = human, MDA-MB-231 breast cancer cell homogenate

CCCCCCCCCCCCCCCC(=O)Oc1ccc(C[C@H](NC(=O)[C@H](CO)NC(=O)[C@H](Cc2c[nH]c3ccccc23)NC(=O)[C@H](Cc2c[nH]cn2)NC(=O)[C@@H](N)CCC(=O)O)C(=O)NCC(=O)N[C@@H](CC(C)C)C(=O)N[C@@H](CCCNC(=N)N)C(=O)N2CCC[C@H]2C(=O)NCC(N)=O)cc1 [TPGnRH, Tyrosine (O-Palmitoyl)-Glu-GnRH]
Plateau ([1]; MDA-MB-231 cell homogenates): 325.8 µg/mL
k ([1]; MDA-MB-231 cell homogenates): 2.224 min⁻¹
AUC(0-t) at 4.03 mM [1, 5]: 105000 µg·h/mL
C0 at 4.03 mM [1, 5]: 710 µg/mL
tolerability ([2]; intravenous 35 mg kg^−1, no immediate signs of toxicity, no gross alterations in liver, spleen, lungs, kidneys): well tolerated
dose in blood ([2]; intravenous, after 1 hour): ~6 % of dose
temperatures at which nanofibers are physically stable [3]: < 40 °C
IC50 [4]: ~200 µM
effect on apoptosis (U-87 MG cells): trigger apoptosis
